Reference: patent US20050014811A1, “Substituted benzimidazole compounds and their use for the treatment of cancer” (Aventis Pharma S.A., priority 2001, published 2005)

Molecular target: CDK4/CyclinD1 (Homo sapiens, UniProt P11802)
Assay: CDK4/CyclinD1 Flashplate assay, 96-well format, biotinylated-Rb peptide substrate
Type: biochemical
Details: not given
Protocol: This is a CDK4/CyclinD1 kinase assay in a 96-well Streptavidin-coated Flashplate with a biotinylated-Rb peptide substrate.
Each point is tested in duplicate
Biotinylated-Rb: Biotin-[…]
• 1. Prepare substrate: 1 mg/ml solution made fresh in PBS. • 2. Add 100 μg per well to the Flashplate. • 3. Incubate for 2 hours at RT. • 4. From 10 mM inhibitor stocks in DMSO, make 1 mM, 300 μM, 100 μM, 30 μM and 10 μM series of dilution in DMSO. • 5. Wash the Flashplate 3 times with 300 μl PBS to remove unbound peptide substrate. • 6. Add the CDK4/CyclinD1 kinase: 70 ng per well, in a volume of 90 μl in kinase buffer (except for “no enzyme” control wells). • 7. Add 1 μl^1 per well of inhibitor to test 10 μM, 3 μM, 1 μM, 0.3 μM and 0.1 μM in final concentration per 100 μl in each well. • 8. Shake gently the Flashplate 1 minute. • 9. Incubate 30 minutes on wet ice. • 10. Initiate the reaction with 10 μl kinase buffer containing 1 μM final cold ATP and 1 μCi final ^33P-ATP per well. • 11. Shake gently the Flashplate 1 minute. • 12. Incubate 45 minutes at RT (no shaking). • 13. Wash the Flashplate 3 times with 300 μl PBS • 14. Count to detect the incorporation of ^33P-ATP by the kinase to the Rb phosphorylation site.

Chain of CDK4/CyclinD1 (P11802 whole entry, species assumed): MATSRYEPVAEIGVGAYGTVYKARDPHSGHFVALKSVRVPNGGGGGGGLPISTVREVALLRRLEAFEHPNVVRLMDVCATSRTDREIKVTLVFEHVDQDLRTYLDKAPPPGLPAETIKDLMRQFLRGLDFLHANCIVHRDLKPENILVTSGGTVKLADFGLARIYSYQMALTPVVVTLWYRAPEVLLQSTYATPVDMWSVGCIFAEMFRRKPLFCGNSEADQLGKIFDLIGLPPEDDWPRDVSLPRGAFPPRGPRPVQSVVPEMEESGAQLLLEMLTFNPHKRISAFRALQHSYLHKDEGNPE
Chain of CDK4/CyclinD1 (P24385 whole entry partner, species assumed): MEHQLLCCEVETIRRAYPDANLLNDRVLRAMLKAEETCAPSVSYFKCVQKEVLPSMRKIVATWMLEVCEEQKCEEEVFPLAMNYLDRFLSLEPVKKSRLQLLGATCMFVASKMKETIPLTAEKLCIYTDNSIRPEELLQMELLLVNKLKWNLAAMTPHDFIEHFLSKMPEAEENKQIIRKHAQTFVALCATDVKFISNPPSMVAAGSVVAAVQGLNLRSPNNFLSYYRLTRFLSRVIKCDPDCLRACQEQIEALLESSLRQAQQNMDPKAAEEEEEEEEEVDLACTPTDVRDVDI

Row | IC50 | inhibition at 10 µM | SMILES
1 | 500 nM |  | O=C(Nc1nc2cc(OS(=O)(=O)c3ccc(NCCNc4ccccc4)cc3)ccc2[nH]1)C1CC1 [Example 60-w, 4-(2-Phenylamino-ethylamino)-benzenesulfonic acid 2-(cyclopropanecarbonyl-amino)-1H-benzoimidazol-5-yl ester]
2 | 600 nM |  | CC[C@@H](CO)Nc1ccc(S(=O)(=O)Oc2ccc3[nH]c(NC(=O)C4CC4)nc3c2)cc1 [Example 60-r, 4-(1S-Hydroxymethyl-propylamino)-benzenesulfonic acid 2-(cyclopropanecarbonyl-amino)-1H-benzoimidazol-5-yl ester]
3 | 900 nM |  | O=C(Nc1nc2cc(OS(=O)(=O)c3ccc(NCCCCO)cc3)ccc2[nH]1)C1CC1 [Example 60-e, 4-(4-Hydroxy-butylamino)-benzenesulfonic acid 2-(cyclopropanecarbonyl-amino)-1H-benzoimidazol-5-yl ester]
4 | 1000 nM |  | COCC(C)Nc1ccc(S(=O)(=O)Oc2ccc3[nH]c(NC(=O)C4CC4)nc3c2)cc1 (centres unmarked) [Example 60-f, 4-(2-Methoxy-1-methyl-ethylamino)-benzenesulfonic acid 2-(cyclopropanecarbonyl-amino)-1H-benzoimidazol-5-yl ester]
5 | 1600 nM |  | O=C(Nc1nc2cc(OS(=O)(=O)c3ccc(NCCOCCO)cc3)ccc2[nH]1)C1CC1 [Example 60-ai, 4-[2-(2-Hydroxy-ethoxy)-ethylamino]-benzenesulfonic acid 2-(cyclopropanecarbonyl-amino)-1H-benzoimidazol-5-yl ester]
6 |  | 78% | COC(=O)Nc1nc2cc(OS(=O)(=O)c3ccc(NC(C)CO)cc3)ccc2[nH]1 (centres unmarked) [Example 68-b, 4-(2-hydroxy-1-methyl-ethylamino)-benzenesulfonic acid 2-methoxycarbonylamino-1H-benzoimidazol-5-yl ester]
7 | 550 nM |  | O=C(Nc1nc2cc(OS(=O)(=O)c3ccc(NC4CCC4)cc3)ccc2[nH]1)C1CC1 [Example 60-ah, 4-Cyclobutylamino-benzenesulfonic acid 2-(cyclopropanecarbonyl-amino)-1H-benzoimidazol-5-yl ester]
8 | 1500 nM |  | O=C(Nc1nc2cc(OS(=O)(=O)c3ccc(NCCN4CCCC4)cc3)ccc2[nH]1)C1CC1 [Example 60-g, 4-(2-Pyrrolidin-1-yl-ethylamino)-benzenesulfonic acid 2-(cyclopropanecarbonyl-amino)-1H-benzoimidazol-5-yl ester]
9 | 8000 nM |  | CCNCCNc1ccc(S(=O)(=O)Oc2ccc3[nH]c(NC(=O)C4CC4)nc3c2)cc1 [Example 60-s, 4-(2-Ethylamino-ethylamino)-benzenesulfonic acid 2-(cyclopropanecarbonyl-amino)-1H-benzoimidazol-5-yl ester]
10 | 1200 nM |  | O=C(Nc1nc2cc(OS(=O)(=O)c3ccc(NC4CCC(O)CC4)cc3)ccc2[nH]1)C1CC1 (centres unmarked) [Example 60-p, 4-(4-Hydroxy-cyclohexylamino)-benzenesulfonic acid 2-(cyclopropanecarbonyl-amino)-1H-benzoimidazol-5-yl ester]
11 | 2000 nM |  | CN1CCN(CCCNc2ccc(S(=O)(=O)Oc3ccc4[nH]c(NC(=O)C5CC5)nc4c3)cc2)CC1 [Example 60-n, 4-[3-(4-Methyl-piperazin-1-yl)-propylamino]-benzenesulfonic acid 2-(cyclopropanecarbonyl-amino)-1H-benzoimidazol-5-yl ester]
12 |  | 97% | COCCNc1ccc(S(=O)(=O)Oc2ccc3[nH]c(NC(=O)OC)nc3c2)cc1 [Example 68-a, 4-(2-methoxy-ethylamino)-benzenesulfonic acid 2-methoxycarbonylamino-1H-benzoimidazol-5-yl ester]
13 |  | 14% | CCCCNc1ccc(S(=O)(=O)Oc2ccc3[nH]c(NC(=O)OC)nc3c2)cc1 [Example 12, Methyl-5-(4-butylaminophenylsulfonyloxy) benzimidazole-2-carbamate]
14 | 300 nM |  | CC(CO)Nc1ccc(S(=O)(=O)Oc2ccc3[nH]c(NC(=O)C4CC4)nc3c2)cc1 (centres unmarked) [Example 60-i, 4-(2-Hydroxy-1-methyl-ethylamino)-benzenesulfonic acid 2-(cyclopropanecarbonyl-amino)-1H-benzoimidazol-5-yl ester]
15 | 340 nM |  | O=C(Nc1nc2cc(OS(=O)(=O)c3ccc(NCCO)cc3)ccc2[nH]1)C1CC1 [Example 60-c, 4-(2-Hydroxy-ethylamino)-benzenesulfonic acid 2-(cyclopropanecarbonyl-amino)-1H-benzoimidazol-5-yl ester]
16 | 600 nM |  | COCCNc1ccc(S(=O)(=O)Oc2ccc3[nH]c(NC(=O)NCCN4CCOCC4)nc3c2)cc1 [Example 78-e, 4-(2-Methoxy-ethylamino)-benzenesulfonic acid 2-[3-(2-morpholin-4-yl-ethyl)-ureido]-1H-benzoimidazol-5-yl ester]
17 | 4000 nM |  | NC(=O)C1CCCCC1Nc1ccc(S(=O)(=O)Oc2ccc3[nH]c(NC(=O)C4CC4)nc3c2)cc1 (centres unmarked) [Example 60-ab, 4-(2-Carbamoyl-cyclohexylamino)-benzenesulfonic acid 2-(cyclopropanecarbonyl-amino)-1H-benzoimidazol-5-yl ester]

More lines, now with the values behind:

Row | SMILES | IC50 | inhibition at 10 µM
18 | O=C(O)[C@@H]1CCCN1C(=O)Nc1nc2cc(OS(=O)(=O)c3ccc(NC4CCCC4)cc3)ccc2[nH]1 [Example 58-q, 1-[5-(4-Cyclopentylamino-benzenesulfonyloxy)-1H-benzoimidazol-2S-ylcarbamoyl]-pyrrolidine-2-carboxylic acid] | 1000 nM | 
19 | NC(=O)C1CCCN1C(=O)Nc1nc2cc(OS(=O)(=O)c3ccc(NC4CCCC4)cc3)ccc2[nH]1 (stereo not drawn) [Example 58-ae, 4-Cyclopentylamino-benzenesulfonic acid 2-[(2S-carbamoyl-pyrrolidine-1-carbonyl)-amino]-1H-benzoimidazol-5-yl ester] | 1490 nM | 
20 | COC(=O)Nc1nc2cc(OS(=O)(=O)c3ccccc3F)ccc2[nH]1 [Example 62-d, 2-Fluoro-benzenesulfonic acid 2-methoxycarbonylamino-1H-benzoimidazol-5-yl ester] | 1300 nM | 
21 | Nc1nc2cc(OS(=O)(=O)c3ccc(NC4CCCC4)cc3)ccc2[nH]1 [Example 22, 5-(4-cyclopentylaminophenylsulfonyloxy)-1H-benzimidazole-2-ylamine] | 1770 nM | 
22 | COC(=O)Nc1nc2cc(OS(=O)(=O)c3ccc(F)cc3F)ccc2[nH]1 [Example 62-p, 2,4-Difluoro-benzenesulfonic acid 2-methoxycarbonylamino-1H-benzoimidazol-5-yl ester] | 700 nM | 
23 | CCC(C)(C)NC(=O)Nc1nc2cc(OS(=O)(=O)c3ccc(NC4CCCC4)cc3)ccc2[nH]1 [Example 58-z, 4-Cyclopentylamino-benzenesulfonic acid 2-[3-(1,1-dimethyl-propyl)-ureido]-1H-benzoimidazol-5-yl ester] | 2230 nM | 
24 | O=C(NCCN1CCOCC1)Nc1nc2ccc(OS(=O)(=O)c3ccc(NCc4ccccn4)cc3)cc2[nH]1 [Example 82-h, 4-[(Pyridin-2-ylmethyl)-amino]-benzene sulfonic acid 2-[3-(2-morpholin-4-yl-ethyl)-ureido]-3H-benzimidazol-5-yl ester] |  | 92%
25 | COC(=O)Nc1nc2cc(OS(=O)(=O)c3ccc(C#N)cc3)ccc2[nH]1 [Example 62-s, 4-Cyano-benzenesulfonic acid 2-methoxycarbonylamino-1H-benzoimidazol-5-yl ester] | 1750 nM | 
26 | NC(=O)[C@H]1CCCN1c1ccc(S(=O)(=O)Oc2ccc3[nH]c(NC(=O)C4CC4)nc3c2)cc1 [Example 60-y, 4-(2R-Carbamoyl-pyrrolidin-1-yl)-benzenesulfonic acid 2-(cyclopropanecarbonyl-amino)-1H-benzoimidazol-5-yl ester] | 2500 nM | 
27 | COCCNC(=O)Nc1nc2cc(OS(=O)(=O)c3ccc(NCCN4CCOCC4)cc3)ccc2[nH]1 [Example 78-s, 4-(2-Morpholin-4-yl-ethylamino)-benzenesulfonic acid 2-[3-(2-methoxy-ethyl)-ureido]-1H-benzoimidazol-5-yl ester] |  | 88%
28 | CCOc1ccc(S(=O)(=O)Oc2ccc3nc(NC(=O)OC)[nH]c3c2)cc1 [Example 64-a, 4-Ethoxy-benzenesulfonic acid 2-methoxycarbonylamino-3H-benzoimidazol-5-yl ester] | 1000 nM | 
29 | CCN(CC)CCCNC(=O)COc1ccc(S(=O)(=O)Oc2ccc3[nH]c(NC(=O)OC)nc3c2)cc1 [Example 66-b, 4-[(3-diethylamino-propylcarbamoyl)-methoxy]-benzenesulfonic acid 2-methoxycarbonylamino-1H-benzoimidazol-5-yl ester] | 3050 nM | 
30 | COC(=O)Nc1nc2cc(OS(=O)(=O)c3ccccc3C#N)ccc2[nH]1 [Example 62-n, 2-Cyano-benzenesulfonic acid 2-methoxycarbonylamino-1H-benzoimidazol-5-yl ester] | 1000 nM | 
31 | COCC(O)CNC(=O)Nc1nc2ccc(OS(=O)(=O)c3ccc(NCC(O)COC)cc3)cc2[nH]1 (centres unmarked) [Example 80-m, 4-(2-Hydroxy-3-methoxy-propylamino)-benzenesulfonic acid 2-[3-(2-hydroxy-3-methoxy-propyl)-ureido]-3H-benzoimidazol-5-yl ester] |  | 103%

Same assay, conditions: at 10 μM

Row | inhibition of CDK4/cyclinD1 at 10 μM | SMILES
32 | 93% inhibition at 10 μM | O=C(NCc1ccccn1)Nc1nc2cc(OS(=O)(=O)c3ccc(NCC4CCNCC4)cc3)ccc2[nH]1 [Example 78-u]
